These compounds were tested against PD-L1 His protein / PD-1 Fc protein (Homo sapiens, UniProt Q9NZQ7) (assay: HTRF Assay (PD-1/PD-L1 interaction)). Conditions: PD-L1 His 6 nM, PD-1 Fc 6 nM.
Sequence of PD-L1 His protein / PD-1 Fc protein (Q9NZQ7 19-238 limits assumed): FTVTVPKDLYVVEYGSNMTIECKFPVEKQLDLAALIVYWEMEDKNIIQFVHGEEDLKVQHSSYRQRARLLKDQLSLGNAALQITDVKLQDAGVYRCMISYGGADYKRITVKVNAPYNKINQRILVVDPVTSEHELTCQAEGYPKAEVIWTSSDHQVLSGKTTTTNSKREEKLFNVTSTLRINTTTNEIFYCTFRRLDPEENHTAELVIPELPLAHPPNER
Type: binding
How it was run: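 HTRF: PD-L1 His (6 nM final), compound (3-fold dilutions, 20 μM to 0.001 μM final) and PD-1 Fc (6 nM final) preincubated 15 min at room temperature. Anti-human IgG-XL665 and anti-6HIS Tb cryptate (mixed at 6.7 nM and 0.35 nM) then added for 1 h at room temperature before reading.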
Work on COc1nc(-c2cccc(-c3cccc(-c4ccn5c(=O)c(CNC[C@H](C)O)cnc5c4)c3Cl)c2Cl)ccc1CNC[C@@H]1CCC(=O)N1 [Example 131, 8-(2,2′-dichloro-3′-(6-methoxy-5-(((((S)-5-oxopyrrolidin-2-yl)methyl)amino)methyl)pyridin-2-yl)-[1,1′-biphenyl]-3-yl)-3-((((S)-2-hydroxypropyl)amino)methyl)-4H-pyrido[1,2-a]pyrimidin-4-one] yielded an IC50 of 1.7 nM. COc1nc(-c2cccc(-c3cccc(-c4ccn5c(=O)c(CNC[C@@H](C)O)cnc5c4)c3Cl)c2Cl)ccc1CNC[C@@H]1CCC(=O)N1 [Example 132, 8-(2,2′-Dichloro-3′-(6-methoxy-5-(((((S)-5-oxopyrrolidin-2-yl)methyl)amino)methyl)pyridin-2-yl)-[1,1′-biphenyl]-3-yl)-3-((((R)-2-hydroxypropyl)amino)methyl)-4H-pyrido[1,2-a]pyrimidin-4-one] showed an IC50 of 1.7 nM. COc1nc(-c2cccc(-c3cccc(-c4ccn5c(=O)c(CNCC(C)(C)O)cnc5c4)c3Cl)c2Cl)ccc1CNC[C@@H]1CCC(=O)N1 [Example 133, (S)-8-(2,2′-Dichloro-3′-(6-methoxy-5-((((5-oxopyrrolidin-2-yl)methyl)amino)methyl)pyridin-2-yl)-[1,1′-biphenyl]-3-yl)-3-(((2-hydroxy-2-methylpropyl)amino)methyl)-4H-pyrido[1,2-a]pyrimidin-4-one] gave an IC50 of 1.5 nM. COc1nc(-c2cccc(-c3cccc(-c4ccn5c(=O)c(CN6C[C@H](O)C[C@@H]6C(=O)O)cnc5c4)c3Cl)c2Cl)ccc1CNC[C@@H]1CCC(=O)N1 [Example 134, (2R,4R)-1-((8-(2,2′-Dichloro-3′-(6-methoxy-5-(((((S)-5-oxopyrrolidin-2-yl)methyl)amino)methyl)pyridin-2-yl)-[1,1′-biphenyl]-3-yl)-4-oxo-4H-pyrido[1,2-a]pyrimidin-3-yl)methyl)-4-hydroxypyrrolidine-2-carboxylic acid] was tested, and the IC50 was 1.1 nM. In the case of COc1nc(-c2cccc(-c3cccc(-c4ccn5c(=O)c(CN6CC(CO)C6)cnc5c4)c3Cl)c2Cl)ccc1CN1CC[C@H](C(=O)O)C1 [Example 135, (S)-1-((6-(2,2′-Dichloro-3′-(3-((3-(hydroxymethyl)azetidin-1-yl)methyl)-4-oxo-4H-pyrido[1,2-a]pyrimidin-8-yl)-[1,1′-biphenyl]-3-yl)-2-methoxypyridin-3-yl)methyl)pyrrolidine-3-carboxylic acid], the IC50 is reported as 0.2 nM. COc1nc(-c2cccc(-c3cccc(-c4ccn5c(=O)c(CN6CC(CO)C6)cnc5c4)c3Cl)c2Cl)ccc1CN1CC(C(=O)O)C1 [Example 136, 1-((6-(2,2′-Dichloro-3′-(3-((3-(hydroxymethyl)azetidin-1-yl)methyl)-4-oxo-4H-pyrido[1,2-a]pyrimidin-8-yl)-[1,1′-biphenyl]-3-yl)-2-methoxypyridin-3-yl)methyl)azetidine-3-carboxylic acid] was tested, and the IC50 was 0.2 nM. COC(=O)CCCNCc1cnc2cc(-c3cccc(-c4cccc(-c5ccc(CNC[C@@H]6CCC(=O)N6)c(OC)n5)c4Cl)c3Cl)ccn2c1=O [Example 137, Methyl (S)-4-(((8-(2,2′-dichloro-3′-(6-methoxy-5-((((5-oxopyrrolidin-2-yl)methyl)amino)methyl)pyridin-2-yl)-[1,1′-biphenyl]-3-yl)-4-oxo-4H-pyrido[1,2-a]pyrimidin-3-yl)methyl)amino)butanoate] was tested, and the IC50 was 1.7 nM. For COc1ccc(CNCc2cnc3cc(-c4cccc(-c5cccc(-c6ccc(CNC[C@@H]7CCC(=O)N7)c(OC)n6)c5Cl)c4Cl)ccn3c2=O)c(OC)c1 [Example 138, (S)-8-(2,2′-Dichloro-3′-(6-methoxy-5-((((5-oxopyrrolidin-2-yl)methyl)amino)methyl)pyridin-2-yl)-[1,1′-biphenyl]-3-yl)-3-(((2,4-dimethoxybenzyl)amino)methyl)-4H-pyrido[1,2-a]pyrimidin-4-one], the IC50 was 1.4 nM.
